Data as given in US11166924B2, “N-methyl-d-aspartate receptor allosteric modulators and methods for their use” (Qingdao Primedicine Pharmaceutical Company, Ltd., priority 2016, dated 2021).
Values belong to the compound of their own block, whether it stands above or below them.

Assays:
GluN1/GluN2B NMDARs = biological target: T1, GluN1/GluN2B NMDARs (Rattus norvegicus, UniProt P35439+Q00960); test: Whole-cell patch clamp recordings in HEK293 cells transfected with GluN1/GluN2B; format: cell-based; settings: for activation at 50 µM: 50 μM (footnote *)
T1 construct: expressed in transfected cells; host or cells: HEK293

GluN1/GluN2A NMDARs = biological target: T2, GluN1/GluN2A NMDARs (Rattus norvegicus, UniProt P35439+Q00959); test: Whole-cell patch clamp recordings in HEK293 cells transfected with GluN1/GluN2A; format: cell-based; settings: for activation at 100 µM / activation at 50 µM: HEK293, Table 2, read-out: Normalized Potentiation GluN1/GluN2A; for Normalized Potentiation / EC50: Table 1; for Normalized Potentiation: positive modulation of GluN1/GluN2A NMDARs, concentration not given; for EC50: potentiation, read-out: EC50; for Selectivity for GluN1/GluN2A versus GluN1/GluN2B NMDARs: FIG. 2, HEK293 cells expressing GluN1/GluN2A and GluN1/GluN2B; for activation at 50 µM: 50 μM (footnote *)
T2 construct: expressed in transfected cells; host or cells: HEK293
Method: Cells were transfected with a combination of pcDNA3-CMV expression vectors, each of which expressed one of the rat recombinant (GluN2AWT, GluN1WT, GluN2BWT) subunits. The sequences of all plasmids were confirmed by automated DNA sequencing. Human Embryonic Kidney 293 (HEK293 cells) were cultured in Dulbecco's Modified Eagle's Medium (DMEM) (Invitrogen) supplemented with 10% fetal bovine serum (FBS). When HEK293 cells achieved 90% confluence, plasmids of either GluN1 & GluN2A or GluN1 & GluN2B were co-transfected into the cells using Lipofectamine 2000 (Invitrogen, 11668019) according to manufacturer's instructions. HEK293 cells were then maintained in the 37° C. incubator with […] and 5% CO2 for 48 hrs before being used in experiments. The transfection ratios for the NMDAR subunit combinations were all 1:1 (GluN1/GluN2A or GluN1/GluN2B).
Whole cell patch-clamp recordings were performed under voltage-clamp mode using an Axopatch 200B or 1D patch-clamp amplifier (Molecular Devices). Whole-cell currents were recorded at a holding potential of −60 mV unless indicated elsewhere, and signals were filtered at 2 kHz, digitized at 10 kHz (Digidata 1322A). Recording pipettes (3-5 MΩ) were filled with intracellular solution containing (mM): CsCl 140, HEPES 10, Mg-ATP 4, QX-314 5, pH 7.20; osmolarity, 290-295 mOsm. BAPTA (10 mM) was added in the intracellular solution (unless otherwise specified). The coverslips were continuously superfused with extracellular solution containing (mM): NaCl 140, KCl 5.4, HEPES 10, CaCl2 1.3, glucose 20, pH 7.4; osmolarity, 305-315 mOsm. NMDA-induced currents were applied by NMDA through perfusion fast-step (Warner Instruments). With perfusion fast-step system, NMDA application was achieved by using a two-square barrel glass tubing and depending on the age of the cultured neurons, CNQX (10 μM), TTX (0.5 μM) or BIC (10 μM) were added in the extracellular solution to minimize the activation of ionotropic glutamate receptors and voltage-gated sodium channels, respectively. All experiments were performed at room temperature. Recordings from at least six HEK293 cells/neurons were performed for all active compounds. Data were pooled among HEK293 cells or primary neurons and composite dose-response data were fitted by the equation Percentage Response=100×Relative Efficacy/[1+(EC50/Concentration)nH], where EC50 is the concentration of agonist that produces a half-maximal response, relative efficacy is the response at maximally effective concentration relative to the maximal response of glutamate, and nH is the Hill slope.
GluN1/GluN2A NMDAR subtypes are an attractive target for positive allosteric modulation. The present inventors employed in silico computational drug discovery methods to conduct a virtual screen of purchasable lead-like compounds from the ZINC database (Irwin, J., et al. Abstr Pap Am Chem Soc (2005) 230:U1009) and some synthetic compounds to identify potential GluN1/GluN2A-NMDAR modulators. The in silico methods included large-scale docking against the interstice interface of the GluN1/GluN2A heterodimer and consensus scoring to select compounds for empirical testing. Candidate compounds were further screened by using GluN1/GluN2A transiently transfected in human embryonic kidney (HEK293) cells and tested by whole-cell patch clamp recordings.
The inventors used transiently transfected HEK293 cells expressing either GluN1/GluN2A or GluN1/GluN2B NMDARs and tested by whole-cell voltage patch clamp recordings to see whether selected compounds were controlling the subtype selectivity profile of the drugs.
Whole-cell patch clamp recordings were performed to measure glutamate evoked currents with chloride-based pipette solutions at a holding potential of −60 mV.

[1] = HEK293, Table 2, read-out: Normalized Potentiation GluN1/GluN2B

T1 sequence (Q00960 27-1482, other chains not shown): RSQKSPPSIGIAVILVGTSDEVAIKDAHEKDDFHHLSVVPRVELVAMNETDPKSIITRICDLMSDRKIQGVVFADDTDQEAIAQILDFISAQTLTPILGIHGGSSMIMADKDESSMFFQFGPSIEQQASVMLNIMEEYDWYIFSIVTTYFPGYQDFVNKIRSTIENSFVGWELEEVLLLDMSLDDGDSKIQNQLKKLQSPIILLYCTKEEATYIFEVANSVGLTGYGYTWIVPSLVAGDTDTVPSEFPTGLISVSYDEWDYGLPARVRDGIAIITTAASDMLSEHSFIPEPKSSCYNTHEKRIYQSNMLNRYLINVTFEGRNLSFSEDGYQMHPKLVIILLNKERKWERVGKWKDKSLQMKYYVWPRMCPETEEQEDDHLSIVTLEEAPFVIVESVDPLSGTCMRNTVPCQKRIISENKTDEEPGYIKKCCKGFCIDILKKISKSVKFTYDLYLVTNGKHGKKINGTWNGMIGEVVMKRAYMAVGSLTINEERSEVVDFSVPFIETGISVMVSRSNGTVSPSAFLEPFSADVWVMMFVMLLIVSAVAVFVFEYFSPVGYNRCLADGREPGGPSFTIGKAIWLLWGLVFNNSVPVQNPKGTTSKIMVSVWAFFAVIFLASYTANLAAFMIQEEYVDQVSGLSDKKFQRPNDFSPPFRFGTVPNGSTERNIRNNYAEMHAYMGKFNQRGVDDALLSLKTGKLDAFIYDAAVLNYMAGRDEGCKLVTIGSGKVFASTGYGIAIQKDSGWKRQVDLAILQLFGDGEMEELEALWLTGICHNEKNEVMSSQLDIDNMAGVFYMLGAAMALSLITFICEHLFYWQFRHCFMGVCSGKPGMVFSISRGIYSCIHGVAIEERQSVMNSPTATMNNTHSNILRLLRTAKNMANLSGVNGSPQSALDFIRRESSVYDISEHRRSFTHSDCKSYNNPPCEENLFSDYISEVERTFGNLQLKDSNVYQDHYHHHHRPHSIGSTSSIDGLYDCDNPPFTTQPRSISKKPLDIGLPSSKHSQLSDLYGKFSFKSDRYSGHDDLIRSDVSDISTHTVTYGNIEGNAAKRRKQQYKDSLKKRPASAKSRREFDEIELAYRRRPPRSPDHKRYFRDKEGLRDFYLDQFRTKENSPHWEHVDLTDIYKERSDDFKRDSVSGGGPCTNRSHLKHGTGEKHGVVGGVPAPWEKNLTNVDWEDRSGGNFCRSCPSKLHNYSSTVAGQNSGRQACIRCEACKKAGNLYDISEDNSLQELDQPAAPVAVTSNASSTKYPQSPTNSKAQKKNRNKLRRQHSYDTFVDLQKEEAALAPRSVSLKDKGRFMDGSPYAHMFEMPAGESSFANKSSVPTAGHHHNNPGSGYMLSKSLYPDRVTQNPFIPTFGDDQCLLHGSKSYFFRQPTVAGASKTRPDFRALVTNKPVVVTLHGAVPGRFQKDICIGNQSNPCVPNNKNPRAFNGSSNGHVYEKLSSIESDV
T2 sequence (Q00959 23-1464, other chains not shown): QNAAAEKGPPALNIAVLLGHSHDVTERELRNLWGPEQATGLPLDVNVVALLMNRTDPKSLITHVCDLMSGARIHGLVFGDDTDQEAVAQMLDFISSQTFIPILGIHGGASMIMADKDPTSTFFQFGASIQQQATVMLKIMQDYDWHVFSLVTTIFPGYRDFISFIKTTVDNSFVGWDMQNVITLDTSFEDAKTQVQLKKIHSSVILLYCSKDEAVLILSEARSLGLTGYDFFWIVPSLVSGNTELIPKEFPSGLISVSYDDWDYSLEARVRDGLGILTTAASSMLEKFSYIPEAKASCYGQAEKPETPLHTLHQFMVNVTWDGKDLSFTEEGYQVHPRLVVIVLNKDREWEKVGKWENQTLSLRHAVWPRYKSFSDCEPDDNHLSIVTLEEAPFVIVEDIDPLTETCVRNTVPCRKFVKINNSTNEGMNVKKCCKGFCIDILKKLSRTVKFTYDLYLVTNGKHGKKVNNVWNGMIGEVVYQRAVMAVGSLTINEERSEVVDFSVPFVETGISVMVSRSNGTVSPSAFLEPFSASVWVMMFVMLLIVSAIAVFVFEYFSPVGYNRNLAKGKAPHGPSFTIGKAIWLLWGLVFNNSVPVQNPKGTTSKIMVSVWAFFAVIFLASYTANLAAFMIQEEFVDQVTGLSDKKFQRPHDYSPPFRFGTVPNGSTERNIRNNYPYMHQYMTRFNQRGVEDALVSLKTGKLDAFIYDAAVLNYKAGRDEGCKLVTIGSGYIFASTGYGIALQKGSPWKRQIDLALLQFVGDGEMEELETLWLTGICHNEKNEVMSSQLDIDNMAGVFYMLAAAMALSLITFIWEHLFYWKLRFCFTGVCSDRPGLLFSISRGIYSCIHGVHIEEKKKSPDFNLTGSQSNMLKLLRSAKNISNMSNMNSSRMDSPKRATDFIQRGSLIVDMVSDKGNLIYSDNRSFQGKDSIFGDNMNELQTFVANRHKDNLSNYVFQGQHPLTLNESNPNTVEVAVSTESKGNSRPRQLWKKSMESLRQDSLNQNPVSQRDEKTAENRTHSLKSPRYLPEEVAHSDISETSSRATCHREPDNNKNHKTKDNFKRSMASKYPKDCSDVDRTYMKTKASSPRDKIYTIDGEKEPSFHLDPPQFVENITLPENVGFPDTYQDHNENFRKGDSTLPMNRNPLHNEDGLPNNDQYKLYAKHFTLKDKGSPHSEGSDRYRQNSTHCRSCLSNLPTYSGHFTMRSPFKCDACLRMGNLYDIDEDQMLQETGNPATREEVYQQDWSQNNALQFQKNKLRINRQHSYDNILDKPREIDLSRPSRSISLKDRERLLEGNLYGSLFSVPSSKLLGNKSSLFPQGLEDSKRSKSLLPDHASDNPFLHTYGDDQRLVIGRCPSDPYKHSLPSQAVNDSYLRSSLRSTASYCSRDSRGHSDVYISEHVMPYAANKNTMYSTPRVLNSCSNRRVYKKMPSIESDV

Normalized Potentiation (GluN1/GluN2A NMDARs): 441.05 ± 150.41%
EC50 (GluN1/GluN2A NMDARs): 100 nM
Compound: CCOc1cc(Cl)c(Cl)c(/C=N/NC(=O)c2ccc(OC)cc2)c1O [Npam48, (E)-N′-(2,3-dichloro-5-ethoxy-6-hydroxybenzylidene)-4-methoxybenzohydrazide]

Normalized Potentiation (GluN1/GluN2A NMDARs): 110.23 ± 4.70%
Compound: CCOc1cc(Cl)c(Cl)c(/C=N/NC(=O)c2ccccc2OC)c1O [Npam53, (E)-N′-(2,3-dichloro-5-ethoxy-6-hydroxybenzylidene)-2-methoxybenzohydrazide]

Normalized Potentiation (GluN1/GluN2A NMDARs): 43.41 ± 13.48%
Compound: CCOc1cc(Br)cc(/C=N/NC(=O)c2ccccc2Cl)c1O [Npam54, N′-[(1E)-(5-bromo-3-ethoxy-2-hydroxyphenyl)methylidene]-2-chlorobenzohydrazide]

Normalized Potentiation (GluN1/GluN2A NMDARs): 32.10 ± 3.02%
Compound: CCOc1cc(Cl)c(Cl)c(/C=N/NC(=O)c2ccccc2)c1O [Npam55, (E)-N′-(2,3-dichloro-5-ethoxy-6-hydroxybenzylidene)benzohydrazide]

Normalized Potentiation (GluN1/GluN2A NMDARs): 21.48 ± 2.89%
Compound: CCOc1cc(Cl)c(Cl)c(/C=N/NC(=O)Cc2ccccc2)c1O [Npam56, N′-[(1E)-(2,3-dichloro-5-ethoxy-6-hydroxyphenyl)methylidene]-2-phenylacetohydrazide]

Normalized Potentiation (GluN1/GluN2A NMDARs): 441.71 ± 65.24%
EC50 (GluN1/GluN2A NMDARs): 90 nM
Compound: COc1cc(Br)c(Br)c(/C=N/NC(=O)c2ccccc2)c1O [Npam59, (E)-N′-(2,3-dibromo-6-hydroxy-5-methoxybenzylidene)benzohydrazide]

activation at 100 µM (GluN1/GluN2B NMDARs; [1]): -54.6 ± 5.87%
activation at 100 µM (GluN1/GluN2A NMDARs): 28.2 ± 2.47%
Compound: O=C(N/N=C/c1cccc(O)c1O)c1cccc([N+](=O)[O-])c1 [Npam64, (E)-N′-(2,3-dihydroxybenzylidene)-3-nitrobenzohydrazide]

activation at 50 µM (GluN1/GluN2B NMDARs; [1]): -46.9 ± 8.94%
activation at 50 µM (GluN1/GluN2A NMDARs): 51.8 ± 6.55%
Compound: Cc1cc2ccccc2cc1C(=O)N/N=C/c1cccc(O)c1O [Npam65, (E)-N′-(2,3-dihydroxybenzylidene)-3-methyl-2-naphthohydrazide]

activation at 25 µM (GluN1/GluN2B NMDARs; HEK293, Table 2, 25 μM, read-out: Normalized Potentiation GluN1/GluN2B): -20.9 ± 3.69%
activation at 100 µM (GluN1/GluN2A NMDARs): 45.7 ± 3.87%
Compound: COc1cccc(/C=N/NC(=O)c2ccccc2I)c1O [Npam66, (E)-N′-(2-hydroxy-3-methoxybenzylidene)-2-iodobenzohydrazide]

activation at 50 µM (GluN1/GluN2B NMDARs; [1]): -56.6 ± 7.45%
activation at 50 µM (GluN1/GluN2A NMDARs): 35.1 ± 4.85%
Compound: O=C(N/N=C/c1cccc(O)c1O)c1ccc(O)cc1 [Npam68, (E)-N′-(2,3-dihydroxybenzylidene)-4-hydroxybenzohydrazide]

activation at 100 µM (GluN1/GluN2B NMDARs; [1]): -24.2 ± 4.55%
Selectivity for GluN1/GluN2A versus GluN1/GluN2B NMDARs (GluN1/GluN2A NMDARs): selective for GluN1/GluN2A NMDARs
activation at 100 µM (GluN1/GluN2A NMDARs): 118 ± 18.5%
Compound: COc1cc([N+](=O)[O-])cc(/C=N/NC(=O)c2ccccc2C)c1O [Npam72, (E)-N′-(2-hydroxy-3-methoxy-5-nitrobenzylidene)-2-methylbenzohydrazide]

Normalized Potentiation (GluN1/GluN2A NMDARs): 213.60 ± 29.34%
Compound: CCOc1cc(Cl)cc(/C=N/NC(=O)c2ccccc2Br)c1O [Npam80, (E)-2-bromo-N′-(5-chloro-3-ethoxy-2-hydroxybenzylidene)benzohydrazide]

Normalized Potentiation (GluN1/GluN2A NMDARs): 196.21 ± 35.93%
Compound: CCOc1cc(Br)cc(/C=N/NC(=O)c2ccccc2C)c1O [Npam82, (E)-N′-(5-bromo-3-ethoxy-2-hydroxybenzylidene)-2-methylbenzohydrazide]

Continued, compound first:

Compound: O=C(N/N=C/c1cccc(O)c1O)c1cccc(I)c1 [Npam30, (E)-N′-(2,3-dihydroxybenzylidene)-3-iodobenzohydrazide]
activation at 100 µM (GluN1/GluN2B NMDARs; [1]): -100 ± 2.83%
activation at 100 µM (GluN1/GluN2A NMDARs): 52.7 ± 4.87%
Normalized Potentiation (GluN1/GluN2A NMDARs): 3.99 ± 4.92%

Compound: COc1cccc(/C=N/NC(=O)c2ccccc2C)c1O [Npam42, (E)-N′-(2-hydroxy-3-methoxybenzylidene)-2-methylbenzohydrazide]
Normalized Potentiation (GluN1/GluN2A NMDARs): 43.04 ± 6.55%

Compound: CCOc1cc(Cl)c(Cl)c(/C=N/NC(=O)c2ccc(C)cc2Cl)c1O [Npam44, (E)-2-chloro-N′-(2,3-dichloro-5-ethoxy-6-hydroxybenzylidene)-4-methylbenzohydrazide]
Normalized Potentiation (GluN1/GluN2A NMDARs): 443.25 ± 83.42%
EC50 (GluN1/GluN2A NMDARs): 150 nM

Compound: COc1cc(Br)c(Br)c(/C=N/NC(=O)c2ccccc2Cl)c1O [Npam45, (E)-2-chloro-N′-(2,3-dibromo-6-hydroxy-5-methoxybenzylidene)benzohydrazide]
Normalized Potentiation (GluN1/GluN2A NMDARs): 284.50 ± 85.20%

Compound: CCOc1cc(Br)cc(/C=N/NC(=O)c2ccc(C)cc2Cl)c1O [Npam46, (E)-N′-(5-bromo-3-ethoxy-2-hydroxybenzylidene)-2-chloro-4-methylbenzohydrazide]
Normalized Potentiation (GluN1/GluN2A NMDARs): 466.57 ± 37.78%
EC50 (GluN1/GluN2A NMDARs): 250 nM

Compound: COc1cc(Br)cc(/C=N/NC(=O)c2cccc(Br)c2)c1O [Npam47, (E)-3-bromo-N′-(5-bromo-2-hydroxy-3-methoxybenzylidene)benzohydrazide]
Normalized Potentiation (GluN1/GluN2A NMDARs): 224.79 ± 24.78%

Compound: CCOc1cc(Cl)c(Cl)c(/C=N/NC(=O)c2cc(Cl)ccc2Br)c1O [Npam49, 2-bromo-5-chloro-N′-[(1E)-(2,3-dichloro-5-ethoxy-6-hydroxyphenyl)methylidene]benzohydrazide]
Normalized Potentiation (GluN1/GluN2A NMDARs): 530.06 ± 114.00%
EC50 (GluN1/GluN2A NMDARs): 190 nM

Compound: CCOc1cc(Cl)c(Cl)c(/C=N/NC(=O)c2cccc(Br)c2C)c1O [Npam50, 3-bromo-N′-[(1E)-(2,3-dichloro-5-ethoxy-6-hydroxyphenyl)methylidene]-2-methylbenzohydrazide]
Normalized Potentiation (GluN1/GluN2A NMDARs): 441.11 ± 36.50%
EC50 (GluN1/GluN2A NMDARs): 250 nM

Compound: CCOc1cc(Cl)c(Cl)c(/C=N/NC(=O)c2cccc(Br)c2C)c1OC [Npam51, 3-bromo-N′-[(1E)-(2,3-dichloro-5-ethoxy-6-methoxyphenyl)methylidene]-2-methylbenzohydrazide]
Normalized Potentiation (GluN1/GluN2A NMDARs): 33.37 ± 6.39%

Compound: CCOc1cc(Cl)c(Cl)c(/C=N/N(C)C(=O)c2ccccc2)c1O [Npam52, N′-[(1E)-(2,3-dichloro-5-ethoxy-6-hydroxyphenyl)methylidene]-N-methylbenzohydrazide]
Normalized Potentiation (GluN1/GluN2A NMDARs): 175.53 ± 25.9%

Compound: CCOc1cc(Cl)c(Cl)c(/C=N/NCc2ccccc2)c1O [Npam57, 2-[(1E)-(2-benzylhydrazin-1-ylidene)methyl]-3,4-dichloro-6-ethoxyphenol]
Normalized Potentiation (GluN1/GluN2A NMDARs): 105.85 ± 12.62%

Compound: CCOc1cc(Br)cc(/C=N/NC(=O)c2ccccc2Br)c1O [Npam58, (E)-2-bromo-N′-(5-bromo-3-ethoxy-2-hydroxybenzylidene)benzohydrazide]
Selectivity for GluN1/GluN2A versus GluN1/GluN2B NMDARs (GluN1/GluN2A NMDARs): selective for GluN1/GluN2A NMDARs
Normalized Potentiation (GluN1/GluN2A NMDARs): 163.60 ± 13.94%
EC50 (GluN1/GluN2A NMDARs): 800 nM

Compound: COc1cccc(/C=N/NC(=O)c2ccccc2)c1O [Npam69, (E)-N′-(2-hydroxy-3-methoxybenzylidene)benzohydrazide]
activation at 50 µM (GluN1/GluN2B NMDARs; [1]): -34 ± 2.47%
activation at 50 µM (GluN1/GluN2A NMDARs): 11.1 ± 1.98%

Compound: O=C(N/N=C/c1cccc(O)c1O)c1cc(O)cc(O)c1 [Npam70, (E)-N′-(2,3-dihydroxybenzylidene)-3,5-dihydroxybenzohydrazide]
activation at 50 µM (GluN1/GluN2B NMDARs; [1]): -45.6 ± 3.67%
activation at 50 µM (GluN1/GluN2A NMDARs): -24.1 ± 2.47%

Compound: Cc1cccc(C(=O)N/N=C/c2cccc(O)c2O)c1 [Npam71, (E)-N′-(2,3-dihydroxybenzylidene)-3-methylbenzohydrazide]
activation at 50 µM (GluN1/GluN2B NMDARs; [1]): -48.6 ± 4.77%
activation at 50 µM (GluN1/GluN2A NMDARs): 41.7 ± 6.78%

Compound: CC(C(O)c1ccc(O)cc1)N1CCC(Cc2ccccc2)CC1 (stereo not drawn) [ifenprodril, reference compound]
Block of GluN1/GluN2B NMDAR currents (GluN1/GluN2B NMDARs): successfully blocked
